Test results from patent US10576085B2, “Substituted aminopurine compounds, compositions thereof, and methods of treatment therewith” (Signal Pharmaceuticals, LLC, priority 2016, dated 2020).

System: cancer cell lines of Table 2
Test: Multiplexed cytotoxicity assay: cell proliferation (relative cell count IC50, GI50)
Type: cell-based
Procedure: Cells are grown in RPMI1640, 10% FBS, 2 mM L-alanyl-L-Glutamine, 1 mM Na pyruvate or a special medium in a humidified atmosphere of 5% CO2 at 37° C. Cells are seeded into 384-well plates and incubated in a humidified atmosphere of 5% CO2 at 37° C. Compounds are added 24 h post cell seeding. At the same time, a time zero untreated cell plate is generated. After a 72 hour incubation period, cells are fixed and stained with fluorescently labeled antibodies and nuclear dye to allow visualization of nuclei, apoptotic cells and mitotic cells. Apoptotic cells are detected using an anti-active caspase-3 antibody. Mitotic cells are detected using an anti phospho-histone-3 antibody. Compounds are serially diluted 3.16-fold and assayed over 10 concentrations in a final assay concentration of 0.1% DMSO from the highest test concentration of 10 μM. Automated fluorescence microscopy was carried out using a Molecular Devices ImageXpress Micro XL high-content imager, and images are collected with a 4× objective.
Sixteen-bit TIFF images are acquired and analyzed with MetaXpress 5.1.0.41 software. Cell proliferation is measured by the signal intensity of the incorporated nuclear dye. The cell proliferation assay output is referred to as the relative cell count. To determine the cell proliferation end point, the cell proliferation data output is transformed to percentage of control (POC) using the following formula: POC=relative cell count(compound wells)/relative cell count(vehicle wells)×100
GI50 is the concentration needed to reduce the observed growth by half. This is the concentration that inhibits the growth to the level midway between growth in untreated cells and the number of cells seeded in the well (Time zero value). The IC50 values are calculated using nonlinear regression to fit data to a sigmoidal 4 point, 4 parameter One-Site dose response model, where: y(fit)=A+[(B−A)/(1+((C/x)^D))].
In Another Experiment, Cells were Grown in RPMI1640, 10% FBS, 2 mM L-alanyl-L-Glutamine, 1 mM Na pyruvate or a special medium in a humidified atmosphere of 5% CO2 at 37° C. Cells were seeded into 384-well plates and incubated in a humidified atmosphere of 5% CO2 at 37° C. Compounds were added 24 h post cell seeding. At the same time, a time zero untreated cell plate was generated. After a 72 hour incubation period, cells were fixed and stained with fluorescently labeled antibodies and nuclear dye to allow visualization of nuclei, apoptotic cells and mitotic cells. Apoptotic cells were detected using an anti-active caspase-3 antibody. Mitotic cells were detected using an anti phospho-histone-3 antibody. Compounds were serially diluted 3.16-fold and assayed over 10 concentrations in a final assay concentration of 0.1% DMSO from the highest test concentration of 10 μM. Automated fluorescence microscopy was carried out using a Molecular Devices ImageXpress Micro XL high-content imager, and images were collected with a 4× objective.
Sixteen-bit TIFF images were acquired and analyzed with MetaXpress 5.1.0.41 software. Cell proliferation was measured by the signal intensity of the incorporated nuclear dye. The cell proliferation assay output was referred to as the relative cell count. To determine the cell proliferation end point, the cell proliferation data output was transformed to percentage of control (POC) using the following formula: POC=relative cell count(compound wells)/relative cell count(vehicle wells)×100
GI50 refers to the concentration needed to reduce the observed growth by half. This corresponds to the concentration that inhibits the growth to the level midway between growth in untreated cells and the number of cells seeded in the well (Time zero value). The IC50 values were calculated using nonlinear regression to fit data to a sigmoidal 4 point, 4 parameter One-Site dose response model, where: y(fit)=A+[(B−A)/(1+((C/x)^D))].

[1] = Homo sapiens, A204, A204, Soft Tissue, Sarcoma
[2] = Homo sapiens, A704, A704, Kidney
[3] = Homo sapiens, ARH-77, ARH77, Myeloma
[4] = Homo sapiens, BT-474, BT474, Breast
[5] = Homo sapiens, BT-549, BT549, Breast
[6] = Homo sapiens, C-4-II, C4II, Female GU, Cervix
[7] = Homo sapiens, CCF-STTG1, CCFSTTG1, CNS, Glioma
[8] = Homo sapiens, CFPAC-1, CFPAC1, Pancreas
[9] = Homo sapiens, ChaGo-K-1, CHAGOK1, Lung, NSCLC
[10] = Homo sapiens, K562, K562, Leukemia
[11] = Homo sapiens, ME-180, ME180, Female GU, Ovary
[12] = Homo sapiens, NALM-6, NALM6, Leukemia
[13] = Homo sapiens, NCI-H295R, NCIH295R, Endocrine, Adrenal gland
[14] = Homo sapiens, NCI-H460, NCIH460, Lung, NSCLC
[15] = Homo sapiens, OVCAR-3, OVCAR3, Female GU, Ovary
[16] = Homo sapiens, SK-NEP-1, SKNEP1, Kidney
[17] = Homo sapiens, SK-UT-1, SKUT1, Soft Tissue, Sarcoma
[18] = Homo sapiens, SNU-16, SNU16, Stomach
[19] = Homo sapiens, SiHa, Female GU, Cervix
[20] = Homo sapiens, T98G, CNS, Glioma
[21] = KHOS-240S, KHOS240S, Soft Tissue, Osteosarcoma

C[C@]1(C(N)=O)CC[C@@H](n2c(Nc3c(Cl)cc(Cl)cc3Cl)nc3cnc(N[C@@H]4CCOC[C@H]4F)nc32)CC1 [Compound 1, cis-4-[2-{[(3S,4R)-3-fluorooxan-4-yl]amino}-8-(2,4,6-trichloroanilino)-9H-purin-9-yl]-1-methyl cyclohexane-1-carboxamide] gave a GI50 (BC1, Lymphoma) of 10 µM, an IC50 (BC1, Lymphoma) of 10 µM and a GI50 (C4I, Female GU, Cervix) of 10 µM. It also gave an IC50 (C4I, Female GU, Cervix) of 10 µM, a GI50 (CEM/C1, CEMC1, Leukemia) of 10 µM and an IC50 (CEM/C1, CEMC1, Leukemia) of 10 µM. It also gave an IC50 (CML-T1, CMLT1, Leukemia) of 10 µM, an IC50 (DB, Lymphoma) of 10 µM and an IC50 (HS229T, Lung, NSCLC) of 10 µM. The IC50 (HS688AT, Skin, Melanoma) was 10 µM, the IC50 (HS729, Soft Tissue, Sarcoma) was 10 µM and the IC50 (HS821T, Soft Tissue, Sarcoma) was 10 µM. It also gave an IC50 (HS888SK, Soft Tissue, Osteosarcoma) of 10 µM, a GI50 (HS895T, Skin, Melanoma) of 10 µM and an IC50 (HS895T, Skin, Melanoma) of 10 µM. It also gave an IC50 (HS934T, Skin, Melanoma) of 10 µM, an IC50 (HT, Lymphoma) of 10 µM and a GI50 [1] of 10 µM. It also gave an IC50 [1] of 10 µM, an IC50 (Homo sapiens, A253, A253, Head and Neck) of 10 µM and a GI50 [2] of 10 µM. The IC50 [2] was 10 µM, the GI50 [3] was 10 µM and the IC50 [3] was 10 µM. The IC50 (Homo sapiens, ASPC1, ASPC1, Pancreas) was 10 µM, the IC50 (Homo sapiens, BT-20, BT20, Breast) was 10 µM and the GI50 [4] was 10 µM. For the same compound, the IC50 [4] was 10 µM, the GI50 [5] was 10 µM and the IC50 [5] was 10 µM. For the same compound, the IC50 (Homo sapiens, BV-173, BV173, Leukemia) was 10 µM, the GI50 [6] was 10 µM and the IC50 [6] was 10 µM. For the same compound, the IC50 (Homo sapiens, CAPAN-1, CAPAN1, Pancreas) was 10 µM, the GI50 [7] was 10 µM and the IC50 [7] was 10 µM. It also gave a GI50 [8] of 10 µM, an IC50 [8] of 10 µM and an IC50 (Homo sapiens, COLO 320DM, COLO320DM, Colon) of 10 µM. The IC50 (Homo sapiens, Ca-Ski, CASKI, Female GU, Ovary) was 10 µM, the IC50 (Homo sapiens, Caov-3, CAOV3, Female GU, Ovary) was 10 µM and the GI50 [9] was 10 µM. It also gave an IC50 [9] of 10 µM, an IC50 (Homo sapiens, DMS-53, DMS53, Lung, SCLC) of 10 µM and an IC50 (Homo sapiens, Daudi, Lymphoma) of 10 µM. The IC50 (Homo sapiens, Detroit 562, DETROIT562, Head and Neck) was 10 µM, the IC50 (Homo sapiens, EFM-19, EFM19, Breast) was 10 µM and the IC50 (Homo sapiens, HT1197, HT1197, Bladder) was 10 µM. It also gave a GI50 [10] of 10 µM, an IC50 [10] of 10 µM and an IC50 (Homo sapiens, MDA-MB-415, MDAMB415, Breast) of 10 µM. The IC50 (Homo sapiens, MDA-MB-436, MDAMB436, Breast) was 10 µM, the GI50 [11] was 10 µM and the IC50 [11] was 10 µM. For the same compound, the GI50 [12] was 10 µM, the IC50 [12] was 10 µM and the IC50 (Homo sapiens, NCI-H69, NCIH69, Lung, SCLC) was 10 µM. The GI50 [13] was 10 µM, the IC50 [13] was 10 µM and the IC50 (Homo sapiens, NCI-H446, NCIH446, Lung, SCLC) was 10 µM. It also gave a GI50 [14] of 10 µM, an IC50 [14] of 10 µM and an IC50 (Homo sapiens, NCI-H596, NCIH596, Lung, NSCLC) of 10 µM. It also gave an IC50 (Homo sapiens, OE19, OE19, Head and Neck, Esophageal) of 10 µM, a GI50 [15] of 10 µM and an IC50 [15] of 10 µM. For the same compound, the IC50 (Homo sapiens, PFSK-1, PFSK1, CNS, Glioma) was 10 µM, the IC50 (Homo sapiens, Raji, Lymphoma) was 10 µM and the IC50 (Homo sapiens, SK-N-DZ, SKNDZ, CNS, Neuroblastoma) was 10 µM. It also gave a GI50 [16] of 10 µM, an IC50 [16] of 10 µM and an IC50 (Homo sapiens, SK-OV-3, SKOV3, Female GU, Ovary) of 10 µM. It also gave a GI50 [17] of 10 µM, an IC50 [17] of 10 µM and a GI50 [18] of 10 µM. The IC50 [18] was 10 µM, the GI50 [19] was 10 µM and the IC50 [19] was 10 µM. The GI50 (Homo sapiens, T47D, Breast) was 10 µM, the IC50 (Homo sapiens, T47D, Breast) was 10 µM and the GI50 [20] was 10 µM. The IC50 [20] was 10 µM, the IC50 (Homo sapiens, U138-MG, U138MG, CNS, Glioma) was 10 µM and the IC50 (Homo sapiens, U-118-MG, U118MG, CNS, Glioma) was 10 µM. The GI50 (J82, Bladder) was 10 µM, the IC50 (J82, Bladder) was 10 µM and the GI50 [21] was 10 µM. The IC50 [21] was 10 µM, the GI50 (KLE, Female GU, Uterus) was 10 µM and the IC50 (KLE, Female GU, Uterus) was 10 µM. For the same compound, the GI50 (KPL-1, KPL1, Breast) was 10 µM, the IC50 (KPL-1, KPL1, Breast) was 10 µM and the IC50 (SKPNDW, Stomach) was 10 µM. It also gave an IC50 (TE125T, Soft Tissue, Sarcoma) of 10 µM, an IC50 (TT, Endocrine, Thyroid) of 10 µM and a GI50 (Y79, Eye-retinoblastoma) of 10 µM. For the same compound, the IC50 (Y79, Eye-retinoblastoma) was 10 µM and the Anti-proliferative activity (variety of cancer cell lines (Table 3)) was “anti-proliferative activity”.
